# Reference: US20250011300A1, “PIPERAZINYLSULFONYLARYL COMPOUNDS FOR TREATMENT OF BACTERIAL INFECTIONS” (Hoffmann-La Roche Inc., priority 2021, published 2025)
# Columns and labels:
# [1] = target: Escherichia coli LpxH (UDP-2,3-diacylglucosamine hydrolase) (Escherichia coli (strain K12), UniProt P43341); experiment: 50% Inhibitory Concentration (IC50) to LpxH, UMP/CMP-Glo Glycosyltransferase Assay kit; type: biochemical
# Procedure, shortened: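 LpxH hydrolysis of UDP-2,3-diacylglucosamine to lipid X and UMP; UMP produced is converted to ATP and quantified by luciferase luminescence (UMP/CMP-Glo). Inhibition taken from reduced light output.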
# E. coli (ATCC 25922) = experiment: Minimal Inhibitory Concentration (MIC) assay, E. coli; type: cell-based; details: Escherichia coli, ATCC25922; E. coli ATCC 25922, CAMHB, 20 hours at 35° C.; read-out: MIC E. coli ATCC 25922
# Procedure, shortened: (§1)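 Broth microdilution in cation-adjusted Mueller Hinton broth, inoculum 5×10^5 CFU/mL, compounds 2-fold serially diluted from 10 mM DMSO stocks. Plates incubated 20 hours at 35° C in ambient air; MIC (μg/mL) is the lowest concentration preventing visible growth.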
# [2] = tested on: K. pneumonia (ATCC 43816); experiment: Minimal Inhibitory Concentration (MIC) assay, K. pneumonia; type: cell-based; details: Klebsiella pneumoniae; K. pneumoniae ATCC43816, CAMHB, 20 hours at 35° C.; read-out: MIC K. pneumoniae ATCC43816
# Procedure, shortened: as §1
# Chain of Escherichia coli LpxH (UDP-2,3-diacylglucosamine hydrolase) (P43341 whole entry): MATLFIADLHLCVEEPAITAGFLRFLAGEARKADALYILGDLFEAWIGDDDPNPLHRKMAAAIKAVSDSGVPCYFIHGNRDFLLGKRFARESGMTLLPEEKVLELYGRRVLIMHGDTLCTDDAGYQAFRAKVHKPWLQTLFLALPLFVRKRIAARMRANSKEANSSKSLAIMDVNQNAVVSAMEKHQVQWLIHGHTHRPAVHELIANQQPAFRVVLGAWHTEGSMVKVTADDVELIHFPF
SMILES,IC50 [1] [nM],MIC (E. coli (ATCC 25922)) [µg/mL],MIC [2] [µg/mL]
"N[C@@H]1CC(=O)N(c2ccc(S(=O)(=O)N3CCN(c4cc(C(F)(F)[C@H]5CNCCO5)cc(Cl)n4)CC3)cc2)C1 [Example 105, (4R)-4-amino-1-[4-[4-[6-chloro-4-[difluoro-[(2R)-morpholin-2-yl]methyl]-2-pyridyl]piperazin-1-yl]sulfonylphenyl]pyrrolidin-2-one]",5.25,1.79,1.79
N[C@@H]1CC(=O)N(c2ccc(S(=O)(=O)N3CCN(c4cc(C(F)(F)C5=CCNCC5)cc(Cl)n4)CC3)cc2)C1 [Example 106],199,1.77,1.77
"N[C@@H]1CC(=O)N(c2ccc(S(=O)(=O)N3CCN(c4cc(C(F)(F)[C@@H]5CCCNC5)cc(Cl)n4)CC3)cc2)C1 [Example 107, (4R)-4-amino-1-[4-[4-[6-chloro-4-[difluoro-[(3R)-3-piperidyl]methyl]-2-pyridyl]piperazin-1-yl]sulfonylphenyl]pyrrolidin-2-one]",19.3,2.85,5.7
"N[C@@H]1CC(=O)N(c2ccc(S(=O)(=O)N3CCN(c4cc(C(F)(F)[C@H]5CCCNC5)cc(Cl)n4)CC3)cc2)C1 [Example 108, (4R)-4-amino-1-[4-[4-[6-chloro-4-[difluoro-[(3S)-3-piperidyl]methyl]-2-pyridyl]piperazin-1-yl]sulfonylphenyl]pyrrolidin-2-one]",35.1,4.98,4.98
"N[C@@H]1CC(=O)N(c2ccc(S(=O)(=O)N3CCN(c4cc(C(F)(F)C5CNC5)cc(Cl)n4)CC3)cc2)C1 [Example 109, (4R)-4-amino-1-[4-[4-[4-[azetidin-3-yl(difluoro)methyl]-6-chloro-2-pyridyl]piperazin-1-yl]sulfonylphenyl]pyrrolidin-2-one]",68.4,16.4,16.4
"O=C1OC(CO)CN1c1ccc(S(=O)(=O)N2CCN(c3cc(C(F)(F)[C@@H]4CNCCO4)cc(Cl)n3)CC2)cc1 (stereo partly drawn) [Example 110, 3-[4-[4-[6-Chloro-4-[difluoro-[(2S)-morpholin-2-yl]methyl]-2-pyridyl]piperazin-1-yl]sulfonylphenyl]-5-(hydroxymethyl)oxazolidin-2-one]",3.4,0.99,0.99
"NC(=O)[C@H]1CC[C@H](C(F)(F)c2cc(Cl)nc(N3CCN(S(=O)(=O)c4ccc(N5C[C@H](N)CC5=O)cc4)CC3)c2)CC1 [Example 120, Trans-4-[[2-[4-[4-[(4R)-4-amino-2-oxo-pyrrolidin-1-yl]phenyl]sulfonylpiperazin-1-yl]-6-chloro-4-pyridyl]-difluoro-methyl]cyclohexanecarboxamide]",< 3.27,0.96,0.48
